System: termites
Assay: Repellency to termites (termites moving through the treated area)
Assay type: in vivo
Conditions: termites do not detect the active ingredient in the treated area and readily move through it, picking up a lethal dose
Text: […], and in particular deltamethrin, an α-cyano-pyrethroid, are the preferred active ingredients of the insecticide formulation of this invention and provides the formulation with its insecticidal activity. The International Union of Pure and Applied Chemistry name for Deltamethrin is (S)-α-cyano-3-phenoxybenzyl (1R)-cis-3-(2,2-dibromovinyl)-2,2-dimethylcyclopropane-carboxylate. Deltamethrin is produced by AgrEvo Environmental Health of 95 Chestnut Ridge Road, Montvale, N.J., 07645. The concentration of deltamethrin in the insecticide formulation may range from 0.01 to 2% by weight of the insecticide without propellant, but is preferably from 0.01 to 0.5% by weight of the insecticide without propellant and most preferably from 0.10 to 0.30% by weight of the insecticide without the propellant.

Compound: CC1(C)[C@H](C(=O)O[C@H](C#N)c2cccc(Oc3ccccc3)c2)[C@@H]1C=C(Br)Br [deltamethrin, (S)-α-cyano-3-phenoxybenzyl (1R)-cis-3-(2,2-dibromovinyl)-2,2-dimethylcyclopropane-carboxylate]
- Repellency to termites: non-repellant to termites
